Patent US9708336B2, “Metallo-beta-lactamase inhibitors” (priority 2014, dated 2017)
Like-named read-outs stand apart in the source and are kept apart here.

How the values were obtained:
NDM-1 = NDM-1 (Klebsiella pneumoniae, UniProt C7C422); assay: biochemical; type: biochemical; settings: read-out: NDM-1 IC50
IMP-1 = IMP-1 (Serratia marcescens, UniProt P52699); assay: biochemical; type: biochemical; settings: read-out: IMP-1 IC50
VIM-1 = VIM-1 (Pseudomonas aeruginosa (strain ATCC 15692 / DSM 22644 / CIP 104116 / JCM 14847 / LMG 12228 / 1C / PRS 101 / PAO1), UniProt A0A0F7KYQ8); assay: Enzyme activity: determination of IC50, fluorescence assay with CCF2-FA substrate (VIM-1); type: biochemical; settings: read-out: VIM-1 IC50
[1] = system: Escherichia coli expressing NDM-1 (CLB30016); assay: Antibiotic potentiation activity: synergistic concentration (MITC95) with imipenem, OD600 growth; type: cell-based; settings: for Escherichia coli expressing NDM-1 (CLB 30016) MITC95: concentration giving 95% inhibition of bacterial growth
Method in brief: (§1)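 Steps: colonies grown overnight at 35 °C; resuspended in saline to OD600 0.11–0.15 by strain; diluted 1:100 into 1.1× CAMHB; imipenem then compound added (antibiotic 4 μg/ml in assay); incubated 35 °C for 22–24 h; absorbance measured.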

[2] = system: Klebsiella pneumoniae expressing VIM-1 (IHMA599644); assay: as above; type: cell-based; settings: for Klebsiella pneumoniae expressing VIM-1 (IHMA 599644) MITC95: concentration giving 95% inhibition of bacterial growth
Method in brief: as §1

[3] = system: Serratia marcescens expressing IMP-1 (CL5741); assay: as above; type: cell-based; settings: for Serratia marcescens expressing IMP-1 (CL5741) MITC95: concentration giving 95% inhibition of bacterial growth
Method in brief: as §1

[4] = fluorescence assay with CCF2-FA substrate
[5] = CLB30016 (NDM-1), 95% inhibition of bacterial growth
[6] = IHMA599644 (VIM-1), 95% inhibition of bacterial growth
[7] = CL5741 (IMP-1), 95% inhibition of bacterial growth
[8] = NDM-1 enzyme, CCF2-FA fluorescence assay
[9] = IMP-1 enzyme, CCF2-FA fluorescence assay
[10] = VIM-1 enzyme, CCF2-FA fluorescence assay
[11] = Escherichia coli expressing NDM-1 (CLB30016), 95% growth inhibition
[12] = Klebsiella pneumoniae expressing VIM-1 (IHMA599644), 95% growth inhibition
[13] = Serratia marcescens expressing IMP-1 (CL5741), 95% growth inhibition
[14] = NDM-1 enzyme, CCF2-FA substrate
[15] = IMP-1 enzyme, CCF2-FA substrate
[16] = VIM-1 enzyme, CCF2-FA substrate
[17] = (CLB30016, NDM-1), 95% growth inhibition
[18] = Klebsiella pneumoniae IHMA599644 (VIM-1), 95% growth inhibition
[19] = Serratia marcescens CL5741 (IMP-1), 95% growth inhibition

Sequence of NDM-1 (C7C422 whole entry, looked up, species assumed): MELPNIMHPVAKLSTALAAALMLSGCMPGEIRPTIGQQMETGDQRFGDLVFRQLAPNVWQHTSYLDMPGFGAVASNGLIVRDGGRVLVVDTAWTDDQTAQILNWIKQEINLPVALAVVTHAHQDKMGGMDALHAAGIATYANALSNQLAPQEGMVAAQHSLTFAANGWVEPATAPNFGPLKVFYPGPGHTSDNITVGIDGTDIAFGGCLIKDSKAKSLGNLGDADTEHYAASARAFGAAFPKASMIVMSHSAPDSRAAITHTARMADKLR
Sequence of IMP-1 (P52699 whole entry, looked up): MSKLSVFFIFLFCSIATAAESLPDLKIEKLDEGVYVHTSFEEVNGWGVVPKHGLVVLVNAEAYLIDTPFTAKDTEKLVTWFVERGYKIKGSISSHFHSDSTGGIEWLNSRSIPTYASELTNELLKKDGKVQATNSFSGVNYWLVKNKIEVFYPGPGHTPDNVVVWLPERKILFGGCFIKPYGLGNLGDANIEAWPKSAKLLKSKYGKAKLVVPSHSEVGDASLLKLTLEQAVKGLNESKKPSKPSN

Structure (SMILES) | IC50 (NDM-1; [4]) | IC50 (IMP-1; [4]) | IC50 (VIM-1; [4]) | IC50 (NDM-1; [14]) | IC50 (IMP-1; [15]) | IC50 (VIM-1; [16]) | Escherichia coli MITC95 [1, 17] | Klebsiella pneumoniae MITC95 [2, 18] | Serratia marcescens MITC95 [3, 19] | other results
NS(=O)(=O)c1cccc(-c2ccc(-n3cccn3)nc2)c1-c1nnn[nH]1 [Example 117, 3-(6-(1H-pyrazol-1-yl)pyridin-3-yl)-2-(1H-tetrazol-5-yl)benzenesulfonamide] | 5.18 nM | 134 nM | 135 nM |  |  |  |  |  |  | Escherichia coli expressing NDM-1 (CLB 30016) MITC95 [1]: 1.172 µM; Klebsiella pneumoniae expressing VIM-1 (IHMA 599644) MITC95 [2]: 100 µM; Serratia marcescens expressing IMP-1 (CL5741) MITC95 [3]: 6.25 µM
NS(=O)(=O)c1cccc(C2CCCC2)c1-c1nnn[nH]1 [Example 160, 3-cyclopentyl-2-(1H-tetrazol-5-yl)benzenesulfonamide] | 9 nM | 251 nM | 280 nM |  |  |  |  |  |  | Escherichia coli expressing NDM-1 (CLB 30016) MITC95 [1]: 0.7813 µM; Klebsiella pneumoniae expressing VIM-1 (IHMA 599644) MITC95 [2]: 75 µM; Serratia marcescens expressing IMP-1 (CL5741) MITC95 [3]: 9.375 µM
NS(=O)(=O)c1c(C(F)(F)F)ccc(-c2ccc3c(c2)CNC3=O)c1-c1nnn[nH]1 [Example 746, 3-(1-oxo-2,3-dihydro-1H-isoindol-5-yl)-2-(1H-tetrazol-5-yl)-6-(trifluoromethyl)benzenesulfon-amide] | 2.27 nM | 2.59 nM | 0.234 nM |  |  |  |  |  |  | Escherichia coli MITC95 [1, 5]: 6.25 µM; Klebsiella pneumoniae MITC95 [2, 6]: 6.25 µM; Serratia marcescens MITC95 [3, 7]: 6.25 µM
NS(=O)(=O)c1c(C(F)(F)F)ccc(-c2ccc(C3CN(C4CCNCC4)C3)cc2)c1-c1nnn[nH]1 [Example 802, 4′-(1-piperidin-4-ylazetidin-3-yl)-2-(1H-tetrazol-5-yl)-4-(trifluoromethyl)biphenyl-3-sulfonamide] | 3.25 nM | 4.27 nM | 17.2 nM |  |  |  |  |  |  | Escherichia coli MITC95 [1, 5]: 6.25 µM; Klebsiella pneumoniae MITC95 [2, 6]: 100 µM; Serratia marcescens MITC95 [3, 7]: 6.25 µM
NS(=O)(=O)c1c(CC2CCNCC2(F)F)ccc(-c2ccc(C3CCNCC3)cc2)c1-c1nn[nH]n1 (stereo not drawn) [Example 465, 4-((3,3-difluoropiperidin-4-yl)methyl)-4′-(piperidin-4-yl)-2-(2H-tetrazol-5-yl)-[1,1′-biphenyl]-3-sulfonamide] |  |  |  |  |  |  |  |  |  | IC50 (NDM-1; [8]): 2.7 nM; IC50 (IMP-1; [9]): 3.31 nM; IC50 (VIM-1; [10]): 1.64 nM; Escherichia coli MITC95 [1, 11]: 3.125 µM; Klebsiella pneumoniae MITC95 [2, 12]: 12.5 µM; Serratia marcescens MITC95 [3, 13]: 3.125 µM
NS(=O)(=O)c1c(C(F)(F)F)ccc(N2CCC(CCO)CC2)c1-c1nnn[nH]1 [Example 661, 3-[4-(2-hydroxyethyl)piperidin-1-yl]-2-(1H-tetrazol-5-yl)-6-(trifluoromethyl)benzenesulfonamide] |  |  |  | 1.01 nM | 0.965 nM | 0.22 nM | 2.703 µM | 2.75 µM | 0.0625 µM | 
Nc1ncc(-c2ccc(C(F)(F)F)c(S(N)(=O)=O)c2-c2nnn[nH]2)cc1F [Example 476, 3-(6-amino-5-fluoro-3-pyridyl)-2-(1H-tetrazol-5-yl)-6-(trifluoromethyl)benzenesulfonamide] |  |  |  |  |  |  |  |  |  | IC50 (NDM-1; [8]): 1.79 nM; IC50 (IMP-1; [9]): 3.98 nM; IC50 (VIM-1; [10]): 0.263 nM; Escherichia coli MITC95 [1, 11]: 1.563 µM; Klebsiella pneumoniae MITC95 [2, 12]: 1.563 µM; Serratia marcescens MITC95 [3, 13]: 0.5859 µM
Nc1ccc(-c2ccc(CC[C@H]3CC[C@@H](N)CC3)c(S(N)(=O)=O)c2-c2nnn[nH]2)cn1 [Example 578, 6-(2-((1s,4r)-4-aminocyclohexyl)ethyl)-3-(6-aminopyridin-3-yl)-2-(1H-tetrazol-5-yl)benzenesulfonamide] |  |  |  | 1.85 nM | 47.1 nM | 11.1 nM | 3.125 µM | 50 µM | 12.5 µM | 
Nc1nc2c(-c3ccc(C(F)(F)F)c(S(N)(=O)=O)c3-c3nnn[nH]3)cccc2s1 [Example 561, 3-(2-aminobenzo[d]thiazol-4-yl)-2-(1H-tetrazol-5-yl)-6-(trifluoromethyl)benzenesulfonamide] |  |  |  | 0.153 nM | 0.993 nM | 0.434 nM | 0.668 µM | 2.563 µM | 0.09375 µM | 
